From ChEMBL document CHEMBL3232809, “Synthesis, antibiotic activity and structure-activity relationship study of some 3-enaminetetramic acids” (2014)
In brackets after ≈: the same amount, converted by molar mass.

Tests used:
Format in all cases: functional
Escherichia coli [1] = experiment: Antimicrobial activity against Escherichia coli ATCC 25922
Enterococcus faecium = experiment: Antimicrobial activity against vancomycin-resistant Enterococcus faecium
Haemophilus influenzae [2] = experiment: Antimicrobial activity against Haemophilus influenzae ATCC 31517 MMSA
Escherichia coli [3] = experiment: Antimicrobial activity against Escherichia coli 50
Streptococcus pneumoniae [4] = experiment: Antimicrobial activity against erythromycin-susceptible Streptococcus pneumoniae ATCC 49619
Staphylococcus aureus [5] = experiment: Antimicrobial activity against vancomycin-susceptible Staphylococcus aureus ATCC 25923
Enterococcus faecalis = experiment: Antimicrobial activity against vancomycin-susceptible Enterococcus faecalis ATCC 29212
Streptococcus pneumoniae [6] = experiment: Antimicrobial activity against penicillin- and erythromycin-resistant Streptococcus pneumoniae in presence of 2.5% horse blood
Escherichia coli [7] = experiment: Antimicrobial activity against Escherichia coli 49
Staphylococcus aureus [8] = experiment: Antimicrobial activity against methicillin-sensitive Staphylococcus aureus ATCC 13709
Pseudomonas aeruginosa = experiment: Antimicrobial activity against Pseudomonas aeruginosa ATCC 27853
Staphylococcus aureus [9] = experiment: Antimicrobial activity against Staphylococcus aureus Oxford
Streptococcus pneumoniae [10] = experiment: Antimicrobial activity against penicillin- and erythromycin-resistant Streptococcus pneumoniae
Staphylococcus aureus [11] = experiment: Antimicrobial activity against methicillin-resistant Staphylococcus aureus
Haemophilus influenzae [12] = experiment: Antimicrobial activity against LS2 Efflux knock-out Haemophilus influenzae

Structure (SMILES) | MIC (Escherichia coli [1]) [µg/mL] | MIC (Enterococcus faecium) [µg/mL] | MIC (Haemophilus influenzae [2]) [µg/mL] | MIC (Escherichia coli [3]) [µg/mL] | MIC (Streptococcus pneumoniae [4]) [µg/mL] | MIC (Staphylococcus aureus [5]) [µg/mL] | MIC (Enterococcus faecalis) [µg/mL] | MIC (Streptococcus pneumoniae [6]) [µg/mL] | MIC (Escherichia coli [7]) [µg/mL] | MIC (Staphylococcus aureus [8]) [µg/mL] | MIC (Pseudomonas aeruginosa) [µg/mL] | MIC (Staphylococcus aureus [9]) [µg/mL] | MIC (Streptococcus pneumoniae [10]) [µg/mL] | MIC (Staphylococcus aureus [11]) [µg/mL] | MIC (Haemophilus influenzae [12]) [µg/mL]
CCOC(=O)[C@]12CO[C@H](C(C)(C)C)N1C(=O)/C(=C(/CC13CC4CC(CC(C4)C1)C3)NCCCN1CCOCC1)C2=O | > 32 | > 64 | > 64 | > 32 | > 64 | > 64 | > 64 | > 64 | > 32 | > 64 | > 32 | > 64 | > 64 | > 64 | 8 (≈ 14 µM)
CCCCCCCCCCC/C(Nc1ccc(NC(=O)COCC(=O)O)cc1)=C1\C(=O)CN(CCCCCC)C1=O | > 32 | > 64 | > 64 | > 32 | 2 (≈ 3.5 µM) | > 64 | > 64 | > 64 | > 32 | > 64 | > 32 | > 64 | 2 (≈ 3.5 µM) | > 64 | > 64
COC(=O)[C@@]12CO[C@@H](C(C)(C)C)N1C(=O)/C(=C(\C)NCC1CCC3CC1C3(C)C)C2=O (stereo not given in full) | > 32 | > 32 | > 32 | > 32 | > 32 | > 32 | > 32 | > 32 | > 32 | > 32 | > 32 | > 32 | > 32 | > 32 | > 32
CCCCCCCCCCCCC/C(Nc1ccccc1)=C1\C(=O)CNC1=O | > 32 | > 32 | > 32 | > 32 | > 32 | > 32 | > 32 | > 32 | > 32 | > 32 | > 32 | > 32 | > 32 | > 32 | > 32
CCCCCCCCCCC/C(NCCCOC(C)C)=C1/C(=O)N[C@@H](CCCC(=O)NCCCOC(C)C)C1=O | > 32 | > 64 | > 64 | > 32 | > 64 | > 64 | > 64 | > 64 | > 32 | > 64 | > 32 | > 64 | 16 (≈ 28.3 µM) | > 64 | 8 (≈ 14.1 µM)
CC1CCCCN1CCCN/C(CC12CC3CC(C)(CC(C)(C3)C1)C2)=C1/C(=O)[C@@H]2CCCC(=O)N2C1=O (stereo not given in full) | > 32 | > 32 | > 32 | > 32 | > 32 | > 32 | > 32 | > 32 | > 32 | > 32 | > 32 | > 32 | > 32 | > 32 | > 32
CCCCCCCCC/C(NC(C)CCCN(CC)CC)=C1/C(=O)N2[C@@H](C(C)(C)C)OC[C@]2(C(=O)OC)C1=O (stereo not given in full) | > 32 | 8 (≈ 14.6 µM) | > 64 | > 32 | 4 (≈ 7.28 µM) | 16 (≈ 29.1 µM) | 16 (≈ 29.1 µM) | 16 | > 32 | 16 (≈ 29.1 µM) | > 32 | 16 (≈ 29.1 µM) | 4 (≈ 7.28 µM) | 16 (≈ 29.1 µM) | > 64
C/C(NCCOc1ccccc1Cl)=C1/C(=O)[C@@H]2CCCC(=O)N2C1=O | > 32 | > 32 | > 32 | > 32 | > 32 | > 32 | > 32 | > 32 | > 32 | > 32 | > 32 | > 32 | > 32 | > 32 | > 32
CCCCCCN/C(=C1/C(=O)CNC1=O)c1ccccc1 | > 32 | > 32 | > 32 | > 32 | > 32 | > 32 | > 32 | > 32 | > 32 | > 32 | > 32 | > 32 | > 32 | > 32 | > 32
COC(=O)[C@]12CO[C@H](C(C)(C)C)N1C(=O)/C(=C(/CCCOc1ccccc1)NCCCOC(C)C)C2=O | > 32 | > 32 | > 32 | > 32 | > 32 | > 32 | > 32 | > 32 | > 32 | > 32 | > 32 | > 32 | > 32 | > 32 | > 32
C/C(NCCOc1ccccc1)=C1/C(=O)[C@@H]2CO[C@@H](C(C)(C)C)N2C1=O | > 32 | > 32 | > 32 | > 32 | > 32 | > 32 | > 32 | > 32 | > 32 | > 32 | > 32 | > 32 | > 32 | > 32 | > 32
CC(C)(C)[C@H]1OC[C@@H]2C(=O)/C(=C(/NCCCCN)c3ccccc3)C(=O)N21 | > 32 | > 32 | > 32 | > 32 | > 32 | > 32 | > 32 | > 32 | > 32 | > 32 | > 32 | > 32 | > 32 | > 32 | > 32
CCOC(=O)[C@]12CO[C@H](C(C)(C)C)N1C(=O)/C(=C(\C)Nc1ncc(Cl)cn1)C2=O | > 32 | > 32 | > 32 | > 32 | > 32 | > 32 | > 32 | > 32 | > 32 | > 32 | > 32 | > 32 | > 32 | > 32 | > 32
C/C(NCCOc1ccccc1Cl)=C1/C(=O)CNC1=O | > 32 | > 32 | > 32 | > 32 | > 32 | > 32 | > 32 | > 32 | > 32 | > 32 | > 32 | > 32 | > 32 | > 32 | > 32
CCCCCC/C(=C1/C(=O)N2[C@@H](C(C)(C)C)OC[C@]2(C(=O)OC)C1=O)N1CCCCC1 | > 32 | > 32 | > 32 | > 32 | > 32 | > 32 | > 32 | > 32 | > 32 | > 32 | > 32 | > 32 | > 32 | > 32 | > 32
C/C(NCCOc1ccccc1)=C1/C(=O)[C@@H]2CCCC(=O)N2C1=O | > 32 | > 32 | > 32 | > 32 | > 32 | > 32 | > 32 | > 32 | > 32 | > 32 | > 32 | > 32 | > 32 | > 32 | > 32
CCCCOCCCN/C(C)=C1/C(=O)N2[C@@H](C(C)(C)C)OC[C@]2(C(=O)OCC)C1=O | > 32 | > 32 | > 32 | > 32 | > 32 | > 32 | > 32 | > 32 | > 32 | > 32 | > 32 | > 32 | > 32 | > 32 | > 32
C/C(NC12CC3CC(CC(C3)C1)C2)=C1\C(=O)N2[C@H](C(C)(C)C)OC[C@@]2(C)C1=O (mixture of isomers) | > 32 | > 64 | > 64 | > 32 | > 64 | > 64 | > 64 | > 64 | > 32 | > 64 | > 32 | > 64 | > 64 | > 64 | 16
CCCC(=O)N1CC(=O)/C(=C(\CCCCc2ccccc2)NC2CC(C)(C)N(C)C(C)(C)C2)C1=O | > 32 | > 32 | > 32 | > 32 | > 32 | > 32 | > 32 | > 32 | > 32 | > 32 | > 32 | > 32 | > 32 | > 32 | > 32
CCOC(=O)[C@]12CO[C@H](C(C)(C)C)N1C(=O)/C(=C(/CC13CC4CC(CC(C4)C1)C3)NCC(C)(C)CN(C)C)C2=O | > 32 | > 32 | > 32 | > 32 | > 32 | > 32 | > 32 | > 32 | > 32 | > 32 | > 32 | > 32 | > 32 | > 32 | > 32
CCOC(=O)[C@]12CO[C@H](C(C)(C)C)N1C(=O)/C(=C(\C)N1CCN(C3CCCCC3)CC1)C2=O | > 32 | > 32 | > 32 | > 32 | > 32 | > 32 | > 32 | > 32 | > 32 | > 32 | > 32 | > 32 | > 32 | > 32 | > 32
